Measurements: PubChem BioAssay (NCI)
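The compound was tested at five concentrations on cells cultured in 96-well plates, with a 48-hour exposure period. At the TGI there is no net growth.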

How the values were obtained:
Assay in all cases: NCI anticancer screen, dose series, 48 h
786-0 renal = test system: 786-0 renal
A549 NSCLC = test system: A549 NSCLC
ACHN renal = test system: ACHN renal
CAKI-1 renal = test system: CAKI-1 renal
CCRF-CEM leukemia = test system: CCRF-CEM leukemia
COLO 205 colon = test system: COLO 205 colon
DLD-1 colon = test system: DLD-1 colon
DMS 114 small cell lung = test system: DMS 114 small cell lung
DMS 273 small cell lung = test system: DMS 273 small cell lung
EKVX NSCLC = test system: EKVX NSCLC
HCC-2998 colon = test system: HCC-2998 colon
HCT-116 colon = test system: HCT-116 colon
HCT-15 colon = test system: HCT-15 colon
HL-60(TB) leukemia = test system: HL-60(TB) leukemia
HOP-18 NSCLC = test system: HOP-18 NSCLC
HOP-62 NSCLC = test system: HOP-62 NSCLC
HT29 colon = test system: HT29 colon
IGROV1 ovarian = test system: IGROV1 ovarian
K-562 leukemia = test system: K-562 leukemia
KM12 colon = test system: KM12 colon
KM20L2 colon = test system: KM20L2 colon
LOX IMVI melanoma = test system: LOX IMVI melanoma
LXFL 529 NSCLC = test system: LXFL 529 NSCLC
M14 melanoma = test system: M14 melanoma
MALME-3M melanoma = test system: MALME-3M melanoma
MOLT-4 leukemia = test system: MOLT-4 leukemia
NCI-H226 lung = test system: NCI-H226 lung
NCI-H23 lung = test system: NCI-H23 lung
NCI-H460 lung = test system: NCI-H460 lung
NCI-H522 lung = test system: NCI-H522 lung
OVCAR-3 ovarian = test system: OVCAR-3 ovarian
OVCAR-4 ovarian = test system: OVCAR-4 ovarian
OVCAR-5 ovarian = test system: OVCAR-5 ovarian
OVCAR-8 ovarian = test system: OVCAR-8 ovarian
RPMI-8226 leukemia = test system: RPMI-8226 leukemia
RXF 393 renal = test system: RXF 393 renal
SF-268 CNS = test system: SF-268 CNS
SF-295 CNS = test system: SF-295 CNS
SK-MEL-2 melanoma = test system: SK-MEL-2 melanoma
SK-MEL-28 melanoma = test system: SK-MEL-28 melanoma
SK-MEL-5 melanoma = test system: SK-MEL-5 melanoma
SK-OV-3 ovarian = test system: SK-OV-3 ovarian
SN12C renal = test system: SN12C renal
SNB-19 CNS = test system: SNB-19 CNS
SNB-75 CNS = test system: SNB-75 CNS
SNB-78 CNS = test system: SNB-78 CNS
SR leukemia = test system: SR leukemia
SW-620 colon = test system: SW-620 colon
TK-10 renal = test system: TK-10 renal
U251 CNS = test system: U251 CNS
UACC-257 melanoma = test system: UACC-257 melanoma
UACC-62 melanoma = test system: UACC-62 melanoma
UO-31 renal = test system: UO-31 renal
XF 498 CNS = test system: XF 498 CNS
A498 renal = test system: A498 renal
HOP-92 NSCLC = test system: HOP-92 NSCLC
M19-MEL melanoma = test system: M19-MEL melanoma
SF-539 CNS = test system: SF-539 CNS

Measured: TGI

O=C(Cc1ccccc1)NN1C(=O)C(Cl)C1c1ccc(Cl)cc1 (stereo unspecified)
not listed: A498 renal | HOP-92 NSCLC | M19-MEL melanoma | SF-539 CNS
> 100 µM: all other assays above

COc1nc(NC2OC(COC(C)=O)C(OC(C)=O)C(OC(C)=O)C2OC(C)=O)c(N=CC=Nc2c(NC3OC(COC(C)=O)C(OC(C)=O)C(OC(C)=O)C3OC(C)=O)nc(OC)[nH]c2=O)c(=O)[nH]1 (stereo unspecified)
not listed: DMS 273 small cell lung | HCT-15 colon | NCI-H460 lung | RXF 393 renal | SK-MEL-2 melanoma | SNB-78 CNS | SR leukemia | XF 498 CNS
> 100 µM: all other assays above

O=C1C(Cl)C(c2cccc([N+](=O)[O-])c2)N1n1cnc2ccccc2c1=O (stereo unspecified)
not listed: CCRF-CEM leukemia | SNB-78 CNS | XF 498 CNS | A498 renal | HOP-92 NSCLC | SF-539 CNS
> 100 µM: all other assays above
